Measured values as given in BindingDB's records for doi:10.1073/pnas.83.13.4918 (Merck Sharp & Dohme Research Laboratories, 1986).
Where a SMILES comes first, the peptide text is derived from it. [ ]: non-standard residue; d: D form. The star is where a group is joined. sY = N[C@@H](Cc1ccc(OS(=O)(=O)O)cc1)C(=O)O; Cbz = O=C(OCc1ccccc1)*

Tests used:
Cholecystokinin = target: T1, Cholecystokinin (Rattus norvegicus, UniProt P01355)
T1 sequence (P01355 whole entry): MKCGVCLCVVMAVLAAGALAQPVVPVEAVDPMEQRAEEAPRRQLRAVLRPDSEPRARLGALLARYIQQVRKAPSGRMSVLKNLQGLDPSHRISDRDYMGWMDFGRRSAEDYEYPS

[1] = target: Gamma-aminobutyric acid receptor subunit alpha-1 (Rattus norvegicus, UniProt P62813)
Chain of Gamma-aminobutyric acid receptor subunit alpha-1 (P62813 whole entry): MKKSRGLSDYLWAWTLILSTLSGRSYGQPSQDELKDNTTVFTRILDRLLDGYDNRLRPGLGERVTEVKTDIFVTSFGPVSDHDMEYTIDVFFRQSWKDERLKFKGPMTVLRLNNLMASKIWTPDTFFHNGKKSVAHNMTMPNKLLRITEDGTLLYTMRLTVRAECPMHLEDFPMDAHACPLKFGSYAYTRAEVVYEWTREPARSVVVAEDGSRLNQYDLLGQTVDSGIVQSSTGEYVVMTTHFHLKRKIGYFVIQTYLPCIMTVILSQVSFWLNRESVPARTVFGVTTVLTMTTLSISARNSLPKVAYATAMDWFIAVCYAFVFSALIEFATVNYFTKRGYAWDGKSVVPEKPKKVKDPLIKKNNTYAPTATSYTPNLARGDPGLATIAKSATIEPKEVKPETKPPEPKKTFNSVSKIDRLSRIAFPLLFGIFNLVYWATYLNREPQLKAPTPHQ

[2] = target: GABA(A) receptor-associated protein (Sus scrofa, UniProt D7RA28)
Chain of GABA(A) receptor-associated protein (D7RA28 whole entry): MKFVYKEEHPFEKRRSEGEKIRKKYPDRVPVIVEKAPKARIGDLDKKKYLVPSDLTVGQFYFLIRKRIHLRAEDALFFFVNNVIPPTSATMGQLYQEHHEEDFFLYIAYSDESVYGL

SMILES	Ki (Cholecystokinin)	Ki [1]	Ki [2]
O=C(NC(Cc1c[nH]c2ccccc12)C(=O)O)c1ccc(Cl)cc1 (centres undefined)	> 10000 nM	–	–
O=C1Nc2ccc(Cl)cc2C(c2ccccc2)=N[C@@H]1Cc1c[nH]c2ccccc12	3400 nM	> 10 µM	–
O=C(NC1N=C(c2ccccc2)c2ccccc2NC1=O)c1cc2ccccc2[nH]1 (centres undefined)	4.7 nM	> 10 µM	–
O=C(NC1N=C(c2ccccc2F)c2ccccc2NC1=O)c1cc2ccccc2[nH]1 (centres undefined)	2.1 nM	–	3 µM
Cc1nnc2n1-c1ccccc1C(c1ccccc1F)=NC2Cc1c[nH]c2ccccc12 (centres undefined)	300 nM	–	0.8 µM
CN1C(=O)[C@H](NC(=O)c2cc3ccccc3[nH]2)N=C(c2ccccc2)c2ccccc21	–	–	> 10 µM
CN1C(=O)[C@@H](NC(=O)c2cc3ccccc3[nH]2)N=C(c2ccccc2)c2ccccc21 [1H-Indole-2-carboxylic acid (1-methyl-2-oxo-5-phenyl-2,3-dihydro-1H-benzo[e][1,4]diazepin-3-yl)-amide: 0.1C4H10O. 0.15CH2Cl2]	–	–	> 10 µM
CSCC[C@H](NC(=O)[C@H](Cc1ccc(OS(=O)(=O)O)cc1)NC(=O)OCc1ccccc1)C(=O)NCC(=O)N[C@@H](Cc1c[nH]c2ccccc12)C(=O)N[C@@H](CCSC)C(=O)N[C@@H](CC(=O)O)C(N)=O [Benzyloxycarbonyl CCK(27-32)NH2] (Cbz-[sY]MGWMD-NH2)	3500 nM	–	–
O=C1Nc2ccc(Cl)cc2C(c2ccccc2)=N[C@H]1Cc1c[nH]c2ccccc12 [CCK antagonist synthetic 6]	> 10000 nM	5.6 µM	–
CN1C(=O)[C@@H](Cc2c[nH]c3ccccc23)N=C(c2ccccc2)c2cc(Cl)ccc21 [CCK antagonist synthetic 7]	1400 nM	–	–
O=C1Nc2ccccc2C(c2ccccc2)=N[C@@H]1Cc1c[nH]c2ccccc12 [CCK antagonist synthetic 8]	1200 nM	> 10 µM	–
O=C1Nc2ccccc2C(c2ccccc2F)=N[C@@H]1Cc1c[nH]c2ccccc12 [CCK antagonist synthetic 9]	500 nM	–	> 10 µM
CN1C(=O)[C@@H](Cc2c[nH]c3ccccc23)N=C(c2ccccc2F)c2ccccc21 [CCK antagonist synthetic 11]	270 nM	–	> 10 µM
O=C(O)CN1C(=O)[C@@H](Cc2c[nH]c3ccccc23)N=C(c2ccccc2F)c2ccccc21 [CCK antagonist synthetic 13]	300 nM	–	> 10 µM
Cc1ccc2c(C(=O)NC3N=C(c4ccccc4F)c4ccccc4NC3=O)c[nH]c2c1 (centres undefined) [CCK antagonist synthetic 15]	1100 nM	–	–
CC(=O)NC1N=C(c2ccccc2F)c2ccccc2NC1=O (centres undefined) [CCK antagonist synthetic 16]	> 10000 nM	–	–
O=C(O)CN1C(=O)C(NC(=O)c2cc3ccccc3[nH]2)N=C(c2ccccc2)c2ccccc21 (centres undefined) [CCK antagonist synthetic 20]	1.4 nM	–	> 10 µM
CN1C(=O)C(NC(=O)c2cc3ccccc3[nH]2)N=C(c2ccccc2)c2cc(F)ccc21 (centres undefined) [CCK antagonist synthetic 22]	1.4 nM	–	7.8 µM
